Patent US20240158446A1, “CYCLIC COMPOUND HAVING SELECTIVE INHIBITORY ACTION ON KRAS OVER HRAS AND NRAS” (CHUGAI SEIYAKU KABUSHIKI KAISHA, priority 2021, published 2024)
Like-named read-outs stand apart in the source and are kept apart here.

Tests used:
[1] = test system: human lung cancer strain NCI-H441;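 also: cell proliferation inhibition after four days measured by CellTiter-Glo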
[2] = target: GDP-bound NRAS wild-type protein (Homo sapiens, UniProt P01111); test: Binding to NRAS by surface plasmon resonance (SPR), Single Cycle Kinetics; conditions: for NRAS/KRAS (ratio of KD value for NRAS to KD value for KRAS): GDP-bound NRAS wild-type protein vs GDP-bound KRAS wild-type protein; for NRAS/KRAS (ratio of KD value with respect to GDP-bound NRAS wild-type protein to KD value with respect to KRAS): SPR KD ratio NRAS/KRAS, class symbols
Chain of GDP-bound NRAS wild-type protein (P01111 whole entry): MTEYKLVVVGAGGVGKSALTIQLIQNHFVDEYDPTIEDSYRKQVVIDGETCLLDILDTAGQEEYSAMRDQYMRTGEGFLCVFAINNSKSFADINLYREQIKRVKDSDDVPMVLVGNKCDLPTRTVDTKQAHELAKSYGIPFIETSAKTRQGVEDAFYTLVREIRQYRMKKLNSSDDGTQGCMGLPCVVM

[3] = target: GDP-bound HRAS wild-type protein (Homo sapiens, UniProt P01112); test: Binding to HRAS by surface plasmon resonance (SPR), Single Cycle Kinetics; conditions: for HRAS/KRAS (ratio of KD value for HRAS to KD value for KRAS): GDP-bound HRAS wild-type protein vs GDP-bound KRAS wild-type protein; for HRAS/KRAS (ratio of KD value with respect to GDP-bound HRAS wild-type protein to KD value with respect to KRAS): SPR KD ratio HRAS/KRAS, class symbols
Chain of GDP-bound HRAS wild-type protein (P01112 whole entry): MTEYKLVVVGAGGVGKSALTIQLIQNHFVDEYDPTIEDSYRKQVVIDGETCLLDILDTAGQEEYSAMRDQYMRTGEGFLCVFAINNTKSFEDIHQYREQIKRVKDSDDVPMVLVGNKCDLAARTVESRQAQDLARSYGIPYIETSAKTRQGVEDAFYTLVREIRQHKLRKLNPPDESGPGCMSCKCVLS

[4] = target: GDP-bound KRAS wild-type protein (Homo sapiens, UniProt P01116); test: Binding to KRAS by surface plasmon resonance (SPR), Single Cycle Kinetics; conditions: GDP-bound KRAS wild-type protein, read-out: KRAS KD
Chain of GDP-bound KRAS wild-type protein (P01116 whole entry): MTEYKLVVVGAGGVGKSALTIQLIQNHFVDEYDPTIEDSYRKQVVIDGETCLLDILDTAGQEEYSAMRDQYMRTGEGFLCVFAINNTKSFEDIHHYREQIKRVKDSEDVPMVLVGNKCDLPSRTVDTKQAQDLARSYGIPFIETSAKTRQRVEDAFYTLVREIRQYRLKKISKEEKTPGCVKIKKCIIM

[5] = SPR Single Cycle Kinetics, 1:1 binding model
[6] = SPR, Single Cycle Kinetics, 1:1 binding model

SMILES | IC50 [1] | Kd ([4]; SPR, Single Cycle Kinetics) | Kd [4, 6] | NRAS/KRAS (ratio of KD value for NRAS to KD value for KRAS) ([2]; SPR, KD ratio class) | HRAS/KRAS (ratio of KD value for HRAS to KD value for KRAS) ([3]; SPR, KD ratio class) | other results
CCC(CC)[C@H]1C(=O)N(C)[C@H](C(=O)N(C)C)CC(=O)N(C)[C@@H](COC)C(=O)N[C@@H]([C@@H](C)CC)C(=O)N(C2CC2)CC(=O)N(C)[C@H]2C/C=C\CCN(C2=O)[C@@H](Cc2ccc(C(F)F)cc2)C(=O)N(C)CC(=O)N[C@@H](CCc2cc(F)c(C(F)(F)F)c(F)c2)C(=O)N2C[C@H](OC3CCCC3)C[C@H]2C(=O)NC2(CC(C)(C)C2)C(=O)N1C [PP2633] | 29 nM |  |  |  |  | NRAS/KRAS (ratio of KD value with respect to GDP-bound NRAS wild-type protein to KD value with respect to KRAS) [2]: AA (a compound having 20 or more is denoted as AA); HRAS/KRAS (ratio of KD value with respect to GDP-bound HRAS wild-type protein to KD value with respect to KRAS) [3]: A (a compound having 10 or more and less than 20 is denoted as A); Kd [4, 5]: 0.64 nM
CCO[C@@H]1C[C@H]2C(=O)NC3(CC(C)(C)C3)C(=O)N(C)[C@@H](C3CCCC3)C(=O)N(C)[C@H](C(=O)N(C)C)CC(=O)N(C)[C@@H](COC)C(=O)N[C@@H]([C@@H](C)CC)C(=O)N(C3CC3)CC(=O)N(C)[C@H]3C/C=C\CCN(C3=O)[C@@H](CC3CCCCC3)C(=O)N(C)CC(=O)N[C@@H](CCc3ccc(Cl)c(Cl)c3)C(=O)N2C1 [PP2563] | 108 nM |  |  |  |  | NRAS/KRAS (ratio of KD value with respect to GDP-bound NRAS wild-type protein to KD value with respect to KRAS) [2]: A (a compound having 10 or more and less than 20 is denoted as A); HRAS/KRAS (ratio of KD value with respect to GDP-bound HRAS wild-type protein to KD value with respect to KRAS) [3]: A (a compound having 10 or more and less than 20 is denoted as A); Kd [4, 5]: 2.3 nM
CCO[C@@H]1C[C@H]2C(=O)NC3(CCC3)C(=O)N(C)[C@@H](C(CC)CC)C(=O)N(C)[C@H](C(=O)N(C)C)CC(=O)N(C)[C@@H](COC)C(=O)N[C@@H]([C@@H](C)CC)C(=O)N(C)CC(=O)N(C)[C@H]3C/C=C\CCN(C3=O)[C@@H](Cc3ccc(C(F)(F)F)cc3)C(=O)N(C)CC(=O)N[C@@H](CCc3ccc(Cl)c(Cl)c3)C(=O)N2C1 [PP1221] | 40.6 nM |  | 0.4 nM | AA (a compound having 20 or more is denoted as AA) | A (a compound having 10 or more and less than 20 is denoted as A) | 
C#CCN1CC(=O)N(C)[C@H]2C/C=C\CCN(C2=O)[C@@H](Cc2ccc(C)cc2)C(=O)N(C)CC(=O)N[C@@H](CCc2cc(F)c(C(F)(F)F)c(F)c2)C(=O)N2C[C@H](OCC)C[C@H]2C(=O)NC2(CCC2)C(=O)N(C)[C@@H](C2CCCC2)C(=O)N(C)[C@H](C(=O)N(C)C)CC(=O)N(C)[C@@H](CCC)C(=O)N[C@@H](CC(C)C)C1=O [PP2536] | 152 nM |  |  |  |  | NRAS/KRAS (ratio of KD value with respect to GDP-bound NRAS wild-type protein to KD value with respect to KRAS) [2]: A (a compound having 10 or more and less than 20 is denoted as A); HRAS/KRAS (ratio of KD value with respect to GDP-bound HRAS wild-type protein to KD value with respect to KRAS) [3]: B (a compound having 3 or more and less than 10 is denoted as B); Kd [4, 5]: 2.4 nM
CCO[C@@H]1C[C@H]2C(=O)NC3(CCC3)C(=O)N(C)[C@@H](C3CCCC3)C(=O)N(C)[C@H](C(=O)N(C)C)CC(=O)N(C)[C@@H](CC(C)(C)C)C(=O)N[C@@H]([C@@H](C)CC)C(=O)N(C)CC(=O)N(C)[C@H]3C/C=C\CCN(C3=O)[C@@H](CC3CCC(F)(F)CC3)C(=O)N(C)CC(=O)N[C@@H](CCc3cc(F)c(C(F)(F)F)c(F)c3)C(=O)N2C1 [PP1460] | 32.9 nM |  | 0.23 nM | A (a compound having 10 or more and less than 20 is denoted as A) | A (a compound having 10 or more and less than 20 is denoted as A) | 
CCC(CC)[C@H]1C(=O)N(C)[C@H](C(=O)N(C)C)CC(=O)N(C)[C@@H](COC)C(=O)N[C@@H]([C@@H](C)CC)C(=O)N(C2CC2)CC(=O)N(C)[C@H]2C/C=C\CCN(C2=O)[C@@H](CC2CCCCC2)C(=O)N(C)CC(=O)N[C@@H](CCc2ccc(Cl)c(Cl)c2)C(=O)N2C[C@H](OC(C)C)C[C@H]2C(=O)NC2(CC(C)(C)C2)C(=O)N1C [PP2517] | 562 nM | 9.3 nM |  |  |  | HRAS/KRAS (ratio of KD value for HRAS to KD value for KRAS) ([3]; SPR): A (a compound having 10 or more and less than 20 is denoted as A)

These reach a lower IC50 [1]. Values come first.

IC50 [1] | Kd ([4]; SPR, Single Cycle Kinetics) | Kd [4, 6] | SMILES | NRAS/KRAS (ratio of KD value for NRAS to KD value for KRAS) ([2]; SPR, KD ratio class) | HRAS/KRAS (ratio of KD value for HRAS to KD value for KRAS) ([3]; SPR, KD ratio class) | other results
28.1 nM | 1.2 nM |  | CC[C@H](C)[C@@H]1NC(=O)[C@H](COC)N(C)C(=O)C[C@@H](C(=O)N(C)C)N(C)C(=O)[C@H](C2CCCC2)N(C)C(=O)C2(CC(C)(C)C2)NC(=O)[C@@H]2C[C@H](C)CN2C(=O)[C@H](CCc2ccc(C(F)(F)F)c(OC)c2)NC(=O)CN(C)C(=O)[C@H](Cc2ccc(C)cc2)N2CC/C=C\C[C@@H](C2=O)N(C)C(=O)[C@@H]2C[C@H](C)CN2C1=O [PP2386] |  |  | NRAS/KRAS (ratio of KD value for NRAS to KD value for KRAS) ([2]; SPR): A (a compound having 10 or more and less than 20 is denoted as A); HRAS/KRAS (ratio of KD value for HRAS to KD value for KRAS) ([3]; SPR): B (a compound having 3 or more and less than 10 is denoted as B)
12.3 nM |  | 0.2 nM | CCO[C@@H]1C[C@H]2C(=O)NC3(CCC3)C(=O)N(C)[C@@H](C3CCCC3)C(=O)N(C)[C@H](C(=O)N3CCOCC3)CC(=O)N(C)[C@@H](CC(C)C)C(=O)N[C@@H]([C@@H](C)CC)C(=O)N(C)CC(=O)N(C)[C@H]3C/C=C\CCN(C3=O)[C@@H](Cc3ccc(C(F)(F)F)cc3)C(=O)N(C)CC(=O)N[C@@H](CCc3cc(F)c(C(F)(F)F)c(F)c3)C(=O)N2C1 [PP1282] | A (a compound having 10 or more and less than 20 is denoted as A) | A (a compound having 10 or more and less than 20 is denoted as A) | 
10.2 nM | 0.056 nM |  | CC[C@H](C)[C@@H]1NC(=O)[C@H](CC)N(C)C(=O)C[C@@H](C(=O)N(C)C)N(C)C(=O)[C@H](C2CCCC2)N(C)C(=O)C2(CCC2)NC(=O)[C@@H]2CC(F)(F)CN2C(=O)[C@H](CCc2cc(F)c(C(F)(F)F)c(F)c2)NC(=O)CN(C)C(=O)[C@H](Cc2ccc(C(F)(F)F)cc2)N2CC/C=C\C[C@@H](C2=O)N(C)C(=O)CN(C)C1=O [PP1129, (2S,8S,14S,20S,23S,27S,30S,36S,38Z)-20-cyclopentyl-8-[2-[3,5-difluoro-4-(trifluoromethyl)phenyl]ethyl]-27-ethyl-12,12-difluoro-N,N,4,19,22,26,32,35-octamethyl-30-[(1S)-1-methylpropyl]-3,6,9,15,18,21,25,28,31,34,42-undecaoxo-2-[[4-(trifluoromethyl)phenyl]methyl]spiro[1,4,7,10,16,19,22,26,29,32,35-undecazatricyclo[34.5.1.0^10,14]dotetracont-38-ene-17,1′-cyclobutane]-23-carboxamide] |  |  | NRAS/KRAS (ratio of KD value for NRAS to KD value for KRAS) ([2]; SPR): A (a compound having 10 or more and less than 20 is denoted as A); HRAS/KRAS (ratio of KD value for HRAS to KD value for KRAS) ([3]; SPR): B (a compound having 3 or more and less than 10 is denoted as B)
4.2 nM |  | 0.082 nM | CC[C@H](C)[C@@H]1NC(=O)[C@H](CC2CCC2)N(C)C(=O)C[C@@H](C(=O)N(C)C)N(C)C(=O)[C@H](C2CCCC2)N(C)C(=O)C2(CCCC2)NC(=O)[C@@H]2CCCN2C(=O)[C@H](CCc2cc(F)c(C(F)(F)F)c(F)c2)NC(=O)CN(C)C(=O)[C@H](Cc2ccc(C(F)(F)F)cc2)N2C[C@H](C)CC[C@@H](C2=O)N(C)C(=O)CN(C)C1=O [PP1386] | B (a compound having 3 or more and less than 10 is denoted as B) | B (a compound having 3 or more and less than 10 is denoted as B) | 
2.4 nM | 0.029 nM |  | CCO[C@@H]1C[C@H]2C(=O)NC3(CCC3)C(=O)N(C)[C@@H](C3CCCC3)C(=O)N(C)[C@H](C(=O)N(C)CC)CC(=O)N(C)[C@H]3CCCC/C=C/c4ccc(cc4)C[C@@H](C(=O)N(C)CC(=O)N[C@@H](CCc4cc(F)c(C(F)(F)F)c(F)c4)C(=O)N2C1)N1CC/C=C\C[C@@H](C1=O)N(C)C(=O)CN(C)C(=O)[C@H]([C@@H](C)CC)NC3=O [PP1827, (1S,7S,11R,13S,19S,22S,26S,29S,35S,37Z,47E)-19-cyclopentyl-7-[2-[3,5-difluoro-4-(trifluoromethyl)phenyl]ethyl]-11-ethoxy-N-ethyl-N,3,18,21,25,31,34-heptamethyl-29-[(1S)-1-methylpropyl]-2,5,8,14,17,20,24,27,30,33,55-undecaoxo-spiro[3,6,9,15,18,21,25,28,31,34,41-undecazapentacyclo[24.15.11.2^43,46.1^35,41.0^9,13]pentapentaconta-37,43(54),44,46(53),47-pentaene-16,1′-cyclobutane]-22-carboxamide] |  |  | NRAS/KRAS (KD ratio) ([2]; ratio of KD for GDP-bound NRAS wild-type protein to KD for KRAS, SPR): A (a compound having 10 or more and less than 20 is denoted as A); HRAS/KRAS (KD ratio) ([3]; ratio of KD for GDP-bound HRAS wild-type protein to KD for KRAS, SPR): A (a compound having 10 or more and less than 20 is denoted as A)
